Experimental data as given in US11072633B2 (priority 2016, dated 2021).
Like-named read-outs stand apart in the source and are kept apart here.

Assays:
[1] = tested on: M. tuberculosis constitutively expressing the luxABCDE operon; experiment: microbe, parasite or virus in culture; type: cell-based
[2] = Pharmacokinetics and bioavailability in plasma; details: male, CD-1, mouse
in vitro [3] = type: cell-based; details: human
Experimental: (§1) The cytotoxicity of SB107 was determined by measuring […], THP-1, HepG2, and HK-2 cell viability after 3 days in the presence of SB107 in a 384-well plate format. SB107 was prepared as 10-point serial dilutions in DMSO, with the highest concentration at 30 μM. Assay plates were incubated for 3 days at 37° C., 5% CO2 and relative luminescent units (RLU) were measured using the CellTiter-Glo® Luminescent Cell Viability Assay. The dose response curve was fitted using the Levenberg-Marquardt algorithm.

in vitro [4] = type: cell-based; details: human; remark: listed apart in the source
Experimental: as §1

hERG = target: T1, hERG (Homo sapiens, UniProt Q12809); experiment: hERG assay (hERG currents in HEK 293 cells); type: cell-based
T1 construct: expressed in transfected cells
Experimental: hERG stably expressed HEK 293 cells were seeded at 5×10^5 cells/per 6 cm cell culture dish and induced with doxycycline at 1 μg/mL for 48 hours. Compound at the final concentrations of 30, 10, 3.33, 1.11 and 0.37 μM was applied to the cells accumulatively, post-compound hERG currents were recorded, and IC50 was calculated. Dofetilide was used as a positive control.
To predict the potential cardiotoxic effects of 6-azastroids, human ether-a-go-go related gene (hERG) assay was applied to 100, 107 and 114 (Table 9). Cytotoxicity of 107 was also assessed (Table 10).

in vitro [5] = type: cell-based; details: human; remark: listed apart in the source
Experimental: as §1

Mtb = experiment: Isoniazid MIC shift on Mtb MIC plates (broth microdilution MIC); type: cell-based, M. tuberculosis
in vitro [6] = details: both, human, microsomes, pH 7.4
CYP3A4 = target: T2, CYP3A4 (Homo sapiens, UniProt P08684); experiment: Inhibition of CYPs in human liver microsomes, CYP3A4; type: in vitro ADME; details: for inhibition at 10 µM: both sexes, human, microsomes
T2 construct: using pooled male and female human liver microsomes; from tissue; host or cells: pooled human liver microsomes
Experimental: (§2) The potential for inhibtion of CYP enzymes (CYP1A2, CYP2A6, CYP2B6, CYP2C8, CYP2C9, CYP2C19, CYP2D6, CYP2E1 and CYP3A4) by 107 at 10 μM were using pooled male and female human liver microsomes, Freshly plated human microsomes with substrate to each CYP enzyme was treated with 107 for 5-20 min. The concentrations of marker metabolites of known substrates were determined by LCMS analysis.
(§3) The inhibition of CYP enzymes by 107 was evaluated in human liver microsomes (Table 11).

[7] = both, human, microsomes, 2 μM, pH 7.4
[8] = Metabolic stability in human liver microsomes; details: both, pH 7.4
CYP2E1 = target: T3, CYP2E1 (Homo sapiens, UniProt P05181); experiment: in vitro; type: in vitro ADME; details: both sexes, microsomes, read-out: % Inhibition 2E1
T3 construct: using pooled male and female human liver microsomes; from tissue; host or cells: pooled human liver microsomes
Experimental: as §2, §3

CYP1A2 = target: T4, CYP1A2 (Homo sapiens, UniProt P05177); experiment: in vitro; type: in vitro ADME; details: both sexes, microsomes, read-out: % Inhibition 1A2
T4 construct: using pooled male and female human liver microsomes; from tissue; host or cells: pooled human liver microsomes
Experimental: as §2, §3

CYP2D6 = target: T5, CYP2D6 (Homo sapiens, UniProt P10635); experiment: in vitro; type: in vitro ADME; details: both sexes, microsomes, read-out: % Inhibition 2D6
T5 construct: using pooled male and female human liver microsomes; from tissue; host or cells: pooled human liver microsomes
Experimental: as §2, §3

CYP2A6 = target: T6, CYP2A6 (Homo sapiens, UniProt P11509); experiment: in vitro; type: in vitro ADME; details: both sexes, microsomes, read-out: % Inhibition 2A6
T6 construct: using pooled male and female human liver microsomes; from tissue; host or cells: pooled human liver microsomes
Experimental: as §2, §3

CYP2C9 = target: T7, CYP2C9 (Homo sapiens, UniProt P11712); experiment: in vitro; type: in vitro ADME; details: both sexes, microsomes, read-out: % Inhibition 2C9
T7 construct: using pooled male and female human liver microsomes; from tissue; host or cells: pooled human liver microsomes
Experimental: as §2, §3

CYP2C19 = target: T8, CYP2C19 (Homo sapiens, UniProt P33261); experiment: in vitro; type: in vitro ADME; details: both sexes, microsomes, read-out: % Inhibition 2C19
T8 construct: using pooled male and female human liver microsomes; from tissue; host or cells: pooled human liver microsomes
Experimental: as §2, §3

CYP2C8 = target: T9, CYP2C8 (Homo sapiens, UniProt P10632); experiment: in vitro; type: in vitro ADME; details: both sexes, microsomes, read-out: % Inhibition 2C8
T9 construct: using pooled male and female human liver microsomes; from tissue; host or cells: pooled human liver microsomes
Experimental: as §2, §3

CYP2B6 = target: T10, CYP2B6 (Homo sapiens, UniProt P20813); experiment: in vitro; type: in vitro ADME; details: both sexes, microsomes, read-out: % Inhibition 2B6
T10 construct: using pooled male and female human liver microsomes; from tissue; host or cells: pooled human liver microsomes
Experimental: as §2, §3

in vivo [9] = details: male, CD-1, mouse
M. tuberculosis = experiment: Minimum Bactericidal Concentration (MBC); type: cell-based; details: Mycobacterium tuberculosis; INH with 60 μM 107; read-out: MBC of INH
in vivo [10] = details: male, CD-1, mouse; remark: listed apart in the source
Caco-2 cell line = experiment: in vitro; type: in vitro ADME; details: human, Caco-2, 2 h, 5 μM, pH 7.4
Experimental: (§4) Caco-2 cells were diluted to 6.86×10^6 cells/mL, dispensed into a 96-well HTS Transwell plate, and cultured for 14 to 18 days. 6-azasteroids at 5 μM was incubated at 37° C. for 2 hours with the Caco-2 cell monolayer in HBSS buffer (10 mM HEPES, pH 7.4) containing 5% BSA. Aliquots from donor sides (apical compartment for Ap→Bl flux, and basolateral compartment for Bl→Ap) and receiver sides (basolateral compartment for Ap→Bl flux, and apical compartment for Bl→Ap) were separated and extracted by acetonitrile or methanol containing appropriate internal standards (IS). The concentration of 6-azasteroid was determined by LC-MS/MS analysis.
(§5) Elution rate: 0.65 mL/min.
(§6) To predict absorption via oral administration, Caco-2 bidirectional permeability assay was performed (Table 8).

in vitro [11] = type: in vitro ADME; details: human
Experimental: as §4, §5, §6

in vitro [12] = type: cell-based; details: human; remark: listed apart in the source
Experimental: as §1

T1 sequence (Q12809 whole entry): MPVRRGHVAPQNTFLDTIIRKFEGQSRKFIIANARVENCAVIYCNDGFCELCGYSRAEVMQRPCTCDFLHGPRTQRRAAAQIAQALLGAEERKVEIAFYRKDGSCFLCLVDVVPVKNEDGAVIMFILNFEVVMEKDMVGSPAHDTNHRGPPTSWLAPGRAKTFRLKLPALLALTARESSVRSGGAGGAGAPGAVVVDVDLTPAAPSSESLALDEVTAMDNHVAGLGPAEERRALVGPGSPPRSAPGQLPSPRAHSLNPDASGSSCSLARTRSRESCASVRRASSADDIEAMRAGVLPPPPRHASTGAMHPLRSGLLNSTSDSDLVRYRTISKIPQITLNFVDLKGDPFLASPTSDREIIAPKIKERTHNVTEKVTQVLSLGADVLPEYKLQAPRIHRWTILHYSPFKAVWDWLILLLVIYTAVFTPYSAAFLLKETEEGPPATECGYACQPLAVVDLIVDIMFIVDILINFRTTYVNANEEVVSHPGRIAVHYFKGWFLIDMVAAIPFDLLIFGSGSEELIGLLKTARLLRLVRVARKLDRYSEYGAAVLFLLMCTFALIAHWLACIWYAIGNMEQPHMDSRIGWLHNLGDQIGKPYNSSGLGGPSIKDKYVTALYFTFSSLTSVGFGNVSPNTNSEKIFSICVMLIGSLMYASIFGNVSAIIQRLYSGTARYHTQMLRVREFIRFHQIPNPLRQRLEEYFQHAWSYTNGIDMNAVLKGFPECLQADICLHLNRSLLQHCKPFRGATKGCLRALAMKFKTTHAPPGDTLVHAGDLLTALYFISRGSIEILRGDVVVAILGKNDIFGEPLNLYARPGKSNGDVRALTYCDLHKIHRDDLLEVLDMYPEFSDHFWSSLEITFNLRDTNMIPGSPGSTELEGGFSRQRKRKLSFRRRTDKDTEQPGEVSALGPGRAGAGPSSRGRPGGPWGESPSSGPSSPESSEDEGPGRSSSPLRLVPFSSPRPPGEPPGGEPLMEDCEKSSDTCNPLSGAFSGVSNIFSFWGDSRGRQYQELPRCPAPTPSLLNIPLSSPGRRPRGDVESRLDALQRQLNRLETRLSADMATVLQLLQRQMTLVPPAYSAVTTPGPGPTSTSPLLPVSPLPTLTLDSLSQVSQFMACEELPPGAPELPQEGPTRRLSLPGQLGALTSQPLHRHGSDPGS
T2 sequence (P08684 whole entry): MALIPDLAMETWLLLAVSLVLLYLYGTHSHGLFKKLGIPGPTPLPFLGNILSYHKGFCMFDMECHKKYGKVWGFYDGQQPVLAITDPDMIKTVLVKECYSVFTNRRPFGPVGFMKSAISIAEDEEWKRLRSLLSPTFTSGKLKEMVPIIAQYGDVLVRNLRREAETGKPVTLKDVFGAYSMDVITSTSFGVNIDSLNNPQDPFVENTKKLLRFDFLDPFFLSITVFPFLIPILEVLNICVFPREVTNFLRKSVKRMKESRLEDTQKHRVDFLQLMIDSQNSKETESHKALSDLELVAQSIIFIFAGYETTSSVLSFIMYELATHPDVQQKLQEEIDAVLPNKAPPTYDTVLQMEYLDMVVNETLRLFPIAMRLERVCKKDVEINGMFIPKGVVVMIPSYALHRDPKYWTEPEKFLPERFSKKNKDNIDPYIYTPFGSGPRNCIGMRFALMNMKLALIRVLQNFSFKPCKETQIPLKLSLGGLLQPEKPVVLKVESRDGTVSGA
T3 sequence (P05181 whole entry): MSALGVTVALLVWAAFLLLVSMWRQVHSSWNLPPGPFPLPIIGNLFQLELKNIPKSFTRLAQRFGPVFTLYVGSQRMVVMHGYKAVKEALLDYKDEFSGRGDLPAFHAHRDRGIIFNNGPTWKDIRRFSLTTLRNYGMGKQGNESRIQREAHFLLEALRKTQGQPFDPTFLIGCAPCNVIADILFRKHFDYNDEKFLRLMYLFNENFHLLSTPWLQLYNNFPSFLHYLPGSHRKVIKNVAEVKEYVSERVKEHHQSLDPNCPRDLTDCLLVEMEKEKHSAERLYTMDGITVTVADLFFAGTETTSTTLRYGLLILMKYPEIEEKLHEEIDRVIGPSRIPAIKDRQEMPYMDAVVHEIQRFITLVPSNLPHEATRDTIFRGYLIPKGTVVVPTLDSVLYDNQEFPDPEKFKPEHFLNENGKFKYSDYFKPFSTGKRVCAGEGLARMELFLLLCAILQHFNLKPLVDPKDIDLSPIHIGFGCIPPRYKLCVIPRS
T8 sequence (P33261 whole entry): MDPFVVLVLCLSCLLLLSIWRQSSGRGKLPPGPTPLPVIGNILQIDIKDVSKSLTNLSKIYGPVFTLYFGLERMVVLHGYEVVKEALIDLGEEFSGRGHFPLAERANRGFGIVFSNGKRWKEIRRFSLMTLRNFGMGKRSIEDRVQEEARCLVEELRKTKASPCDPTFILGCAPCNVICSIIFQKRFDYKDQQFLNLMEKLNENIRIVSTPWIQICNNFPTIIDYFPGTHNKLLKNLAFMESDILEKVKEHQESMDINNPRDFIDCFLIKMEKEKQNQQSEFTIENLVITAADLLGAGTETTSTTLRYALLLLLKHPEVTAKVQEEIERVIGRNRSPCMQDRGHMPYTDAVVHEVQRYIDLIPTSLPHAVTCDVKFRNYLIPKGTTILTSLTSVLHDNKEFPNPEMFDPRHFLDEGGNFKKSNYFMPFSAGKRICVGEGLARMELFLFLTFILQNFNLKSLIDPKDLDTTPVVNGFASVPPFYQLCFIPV
T9 sequence (P10632 whole entry): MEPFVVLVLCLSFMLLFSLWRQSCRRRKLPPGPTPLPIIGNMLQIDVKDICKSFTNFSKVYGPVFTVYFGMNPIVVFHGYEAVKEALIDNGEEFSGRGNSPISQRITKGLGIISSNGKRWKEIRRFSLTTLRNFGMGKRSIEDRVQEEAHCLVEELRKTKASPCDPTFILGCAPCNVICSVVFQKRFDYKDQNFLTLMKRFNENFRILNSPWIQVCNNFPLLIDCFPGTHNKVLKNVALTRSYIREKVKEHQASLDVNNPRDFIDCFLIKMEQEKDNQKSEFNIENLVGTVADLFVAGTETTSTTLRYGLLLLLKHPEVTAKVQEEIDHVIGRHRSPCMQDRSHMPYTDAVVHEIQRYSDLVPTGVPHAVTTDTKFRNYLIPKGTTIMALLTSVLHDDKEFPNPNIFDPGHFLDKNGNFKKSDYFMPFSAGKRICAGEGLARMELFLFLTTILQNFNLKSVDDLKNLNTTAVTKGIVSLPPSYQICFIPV
T4 sequence (P05177 whole entry): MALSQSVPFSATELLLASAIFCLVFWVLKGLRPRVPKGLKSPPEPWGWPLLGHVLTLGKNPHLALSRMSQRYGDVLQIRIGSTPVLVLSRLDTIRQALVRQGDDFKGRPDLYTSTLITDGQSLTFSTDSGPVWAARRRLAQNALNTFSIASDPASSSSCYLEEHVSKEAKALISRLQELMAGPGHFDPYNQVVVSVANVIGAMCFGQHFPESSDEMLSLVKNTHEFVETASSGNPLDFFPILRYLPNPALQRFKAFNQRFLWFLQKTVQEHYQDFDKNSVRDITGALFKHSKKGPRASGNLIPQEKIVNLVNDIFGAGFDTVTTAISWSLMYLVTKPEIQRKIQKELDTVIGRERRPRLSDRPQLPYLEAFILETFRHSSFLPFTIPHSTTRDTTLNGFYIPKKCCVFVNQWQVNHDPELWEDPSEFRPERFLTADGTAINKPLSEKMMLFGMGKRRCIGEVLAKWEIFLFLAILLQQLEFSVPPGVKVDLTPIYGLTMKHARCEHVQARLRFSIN
T5 sequence (P10635 whole entry): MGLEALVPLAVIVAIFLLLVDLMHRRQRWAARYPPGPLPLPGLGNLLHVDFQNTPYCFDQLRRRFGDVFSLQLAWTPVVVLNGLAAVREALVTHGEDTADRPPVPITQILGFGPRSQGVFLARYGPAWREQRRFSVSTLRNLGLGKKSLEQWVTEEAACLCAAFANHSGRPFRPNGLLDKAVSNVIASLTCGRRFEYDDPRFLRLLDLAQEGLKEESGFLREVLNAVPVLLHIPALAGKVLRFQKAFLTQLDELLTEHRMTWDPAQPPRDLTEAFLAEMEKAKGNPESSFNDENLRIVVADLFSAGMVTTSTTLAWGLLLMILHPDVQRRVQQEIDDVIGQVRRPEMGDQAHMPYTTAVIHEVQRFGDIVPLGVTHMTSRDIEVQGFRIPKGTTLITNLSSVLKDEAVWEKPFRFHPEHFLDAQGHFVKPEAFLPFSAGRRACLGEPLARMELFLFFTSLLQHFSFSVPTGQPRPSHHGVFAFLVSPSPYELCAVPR
T6 sequence (P11509 whole entry): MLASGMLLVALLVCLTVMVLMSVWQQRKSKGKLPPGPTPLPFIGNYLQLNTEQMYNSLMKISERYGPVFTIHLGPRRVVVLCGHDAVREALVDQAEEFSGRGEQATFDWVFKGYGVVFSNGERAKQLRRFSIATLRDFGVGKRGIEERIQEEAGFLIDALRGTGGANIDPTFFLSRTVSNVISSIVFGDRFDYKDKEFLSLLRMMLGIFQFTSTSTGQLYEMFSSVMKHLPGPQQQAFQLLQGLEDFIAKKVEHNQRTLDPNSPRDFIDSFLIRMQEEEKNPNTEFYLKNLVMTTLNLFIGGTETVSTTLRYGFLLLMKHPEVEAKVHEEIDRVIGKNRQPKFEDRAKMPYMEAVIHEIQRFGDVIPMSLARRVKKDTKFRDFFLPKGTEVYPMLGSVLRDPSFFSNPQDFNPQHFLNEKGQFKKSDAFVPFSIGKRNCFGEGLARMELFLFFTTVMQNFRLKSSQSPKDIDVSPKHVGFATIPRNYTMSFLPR

COc1nc(OC(F)(F)F)c(NC(=O)C2CCC3C4CN(C(=O)OC(C)(C)C)C5=CC(=O)CC[C@]5(C)C4CC[C@]23C)cc1Br (stereo partly drawn) [Compound 107]
MIC ([1]; Mycobacterium tuberculosis, INH with 15 μM 6-azasteroid, read-out: LORA MIC of INH): 0.75 µM
activity under low oxygen conditions ([1]; in combination with isoniazid): active
half-life ([2]; iv, 1 mg/kg): 6.75 h
half-life ([2]; po, 5 mg/kg): 4.98 h
IC50 at 3 days (in vitro [3]): > 30 µM
IC50 at 3 days (in vitro [4]): > 30 µM
hERG inhibition (hERG; at 30 μM): No hERG inhibition was observed
IC50 (hERG; hERG stably expressed HEK 293 cells): > 30 µM
inhibition at 30 mM (hERG; human, HEK 293 cells stably expressing hERG, at 30 mM): 34.1%
IC50 at 3 days (in vitro [5]): > 30 µM
Isoniazid MIC shift (Mtb): ++ (4-8-fold ++)
CLint scaled at 2 μM (in vitro [6]): 18.8 mL/min/kg
microsomal CLint at 2 μM (in vitro [6]): 15 µL/min/mg
inhibition at 10 µM (CYP3A4; 107 at 10 μM, either midazolam or testosterone as substrate, read-out: inhibition of CYP 3A4): 30%
inhibition at 10 µM (CYP3A4; at 10 μM, midazolam as substrate, read-out: % Inhibition 3A4 (midazolam)): 30.4%
inhibition at 10 µM (CYP3A4; at 10 μM, testosterone as substrate, read-out: % Inhibition 3A4 (testosterone)): 30.5%
IC50 (CYP3A4; both substrates (midazolam, testosterone), tested 10 nM to 50 μM, read-out: CYP 3A4 IC50): > 50 µM
Remaining Percentage with NADPH, 0 min ([7]; 0 h): 100.00%
Remaining Percentage with NADPH, 15 min ([7]; 0.25 h): 93.28%
Remaining Percentage with NADPH, 30 min ([7]; 0.5 h): 79.18%
Remaining Percentage with NADPH, 45 min ([7]; 0.75 h): 71.86%
Remaining Percentage with NADPH, 60 min ([7]; 1 h): 65.13%
half-life at 2 μM [8]: 1.54 h
inhibition at 10 µM (CYP2E1): 0%
inhibition at 10 µM (CYP1A2): 0%
inhibition at 10 µM (CYP2D6): 4.4%
inhibition at 10 µM (CYP2A6): 16.5%
inhibition at 10 µM (CYP2C9): 33.1%
inhibition at 10 µM (CYP2C19): 65.3%
inhibition at 10 µM (CYP2C8): 39.7%
inhibition at 10 µM (CYP2B6): 0%
half-life (in vivo [9]): ~7 h
Tmax (in vivo [9]; po, 5 mg/kg): 1 h
MBC (M. tuberculosis): 3 µM
Tmax (in vivo [10]; iv, 1 mg/kg): 0.0833 h
Tmax (in vivo [10]; po, 5 mg/kg): 1 h
Efflux Ratio (Caco-2 cell line): 0.71
Recovery (%) BL-AP (Caco-2 cell line): 58.07%
efflux ratio at 2 h, 5 μM (in vitro [11]; Caco-2, pH 7.4, Efflux Ratio): > 1.06
recovery at 2 h, 5 μM (in vitro [11]; Caco-2, pH 7.4, Recovery (%) BL-AP): 63.4%
t1/2 Lung PO (Lung tissue distribution; PO 5 mg/kg, lung, 5 mg/kg): 5.82 h
half-life (Lung tissue distribution; male, CD-1, mouse, lung, iv, 1 mg/kg, t1/2 Lung IV, IV 1 mg/kg): 6.88 h
half-life (Lung tissue distribution; male, CD-1, mouse, lung, po, 5 mg/kg, t1/2 Lung PO, PO 5 mg/kg): 5.8 h
Kp (Lung tissue distribution; male, CD-1, mouse, lung/plasma, po, 5 mg/kg): 1.74
IC50 at 3 days (in vitro [12]): > 30 µM
